From the supplement of paper PMC10307832

How the values were obtained:
Test in all cases: relative viability (nuclei count vs DMSO), 5 days (fraction); higher = more cells survive
[1] = compound: NCC(=O)Nc1ccc(-n2nc(C(F)(F)F)cc2-c2ccc3c(ccc4ccccc43)c2)cc1
Outline: (§1)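 MetaXpress counted nuclei in 4× images of lung cancer cell lines that had been fixed, permeabilised and Hoechst-stained in one step. Before that, cells in 1536-well plates were kept overnight at 37 °C, pinned with five √10-spaced library-drug doses on vehicle-anchored plates, and cultured 5 days without medium change. Viability takes treated-well nuclei over vehicle-well nuclei and uses the median across plates. Plates were accepted only at control CV below 25% and at least one doubling.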

kb NB 142-70 = compound: C1CSC2=C(C(=O)N1)SC3=C2C=C(C=C3)O [kb NB 142-70]
Outline: as §1

[2] = compound: NCC(=O)Nc1ccc(-n2nc(C(F)(F)F)cc2-c2ccc3c(ccc4ccccc43)c2)cc1 + Nc1nc2[nH]cc(CCc3ccc(C(=O)N[C@@H](CCC(=O)O)C(=O)O)cc3)c2c(=O)[nH]1 [Pemetrexed] (partner 0.2 µM)
Outline: (§2)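 A single step with final 0.05% Triton X-100, 1% formaldehyde and 1 ug/ml Hoechst fixed the cells and stained nuclei 5 days after treatment. Lung cancer cell lines in 1536-well plates had been treated by pin tool the day after seeding with one drug alone or a fixed anchor-drug dose plus five library-drug doses (not always all listed) in √10 steps, and nuclei were counted on 4× images. Relative viability is the ratio of nuclei in treated wells to nuclei in vehicle wells, taken as the median of duplicate plates.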

kb NB 142-70 + OSI-027 = compound: C1CSC2=C(C(=O)N1)SC3=C2C=C(C=C3)O [kb NB 142-70] + COc1cccc2cc(-c3nc([C@H]4CC[C@H](C(=O)O)CC4)n4ncnc(N)c34)[nH]c12 [OSI-027] (partner 0.5 µM)
Outline: as §2

Row | Cell Line | relative viability ([1]; 0.02 µM) | relative viability ([1]; 0.06325 µM) | relative viability ([1]; 0.2 µM) | relative viability ([1]; 0.6325 µM) | relative viability ([1]; 2 µM) | relative viability (kb NB 142-70; 0.1 µM) | relative viability (kb NB 142-70; 1 µM) | relative viability (kb NB 142-70; 3.162 µM) | relative viability ([2]; first compound 0.02 µM) | relative viability ([2]; first compound 0.06325 µM) | relative viability ([2]; first compound 0.2 µM) | relative viability ([2]; first compound 0.6325 µM) | relative viability ([2]; first compound 2 µM) | relative viability (kb NB 142-70 + OSI-027; first compound 0.1 µM) | relative viability (kb NB 142-70 + OSI-027; first compound 1 µM) | relative viability (kb NB 142-70 + OSI-027; first compound 3.162 µM)
1 | HOP-62 | 1.03 | 0.997 | 0.943 | 0.928 | 1.05 | 1.03 | 1.04 | 0.911 | 0.334 | 0.29 | 0.3 | 0.275 | 0.314 | 0.868 | 0.751 | 0.699
2 | IA-LM | 1.01 | 1.03 | 1.02 | 1.08 | 0.996 | 0.818 | 1.05 | 1.06 |  |  |  |  |  |  |  | 
3 | LC-2-ad | 0.951 | 1.08 | 1 | 0.968 | 1.01 | 1.09 | 0.977 | 0.886 | 0.28 | 0.265 | 0.292 | 0.307 | 0.281 | 0.779 | 0.842 | 0.699
4 | LCLC-97TM1 | 0.995 | 1.1 | 1 | 1.01 | 0.958 | 1.03 | 0.956 | 0.489 | 0.181 | 0.176 | 0.183 | 0.178 | 0.135 | 0.635 | 0.407 | 0.237
5 | LCLC-103H | 0.957 | 1.07 | 0.963 | 0.979 | 0.966 | 1.03 | 0.984 | 1.03 | 0.406 | 0.481 | 0.434 | 0.447 | 0.437 | 0.493 | 0.452 | 0.454
6 | LK-2 | 0.923 | 1.05 | 0.935 | 1.06 | 0.909 | 1.01 | 0.855 | 0.685 | 0.295 | 0.207 | 0.294 | 0.256 | 0.217 | 0.19 | 0.163 | 0.163
7 | LOU-NH91 | 0.963 | 1 | 0.951 | 0.965 | 1.06 | 0.959 | 0.974 | 0.63 | 0.356 | 0.393 | 0.375 | 0.389 | 0.34 | 0.699 | 0.695 | 0.651
8 | LU99A | 0.864 | 0.915 | 0.987 | 0.908 | 0.967 | 0.94 | 0.816 | 0.637 | 0.182 | 0.153 | 0.202 | 0.164 | 0.168 | 0.325 | 0.327 | 0.317
9 | LXF-289 | 1.01 | 1.06 | 0.988 | 0.991 | 1.03 | 0.999 | 1.03 | 0.975 | 0.913 | 0.956 | 0.914 | 0.926 | 0.767 | 0.737 | 0.695 | 0.681
10 | NCI-H23 | 0.863 | 1.04 | 0.988 | 0.904 | 0.846 | 1.05 | 0.689 | 0.336 | 0.656 | 0.707 | 0.56 | 0.63 | 0.665 | 0.632 | 0.572 | 0.412
11 | NCI-H322M | 1.01 | 0.958 | 0.92 | 0.98 | 0.996 | 1.03 | 1 | 0.92 | 0.562 | 0.617 | 0.535 | 0.643 | 0.668 | 0.489 | 0.551 | 0.498
12 | NCI-H358 | 0.965 | 0.993 | 0.925 | 0.939 | 0.94 | 0.943 | 0.725 | 0.137 | 0.168 | 0.164 | 0.179 | 0.193 | 0.185 | 0.669 | 0.464 | 0.105
13 | NCI-H441 | 0.977 | 1.04 | 1.28 | 0.947 | 0.956 | 0.975 | 0.967 | 0.637 | 0.253 | 0.279 | 0.273 | 0.259 | 0.243 | 0.556 | 0.58 | 0.277
14 | NCI-H460 | 0.974 | 0.995 | 1 | 0.987 | 0.976 | 1.01 | 0.99 | 0.979 | 0.0659 | 0.064 | 0.0588 | 0.0727 | 0.0577 | 0.677 | 0.576 | 0.315
15 | NCI-H520 | 1.01 | 1.04 | 1.1 | 0.933 | 1.05 | 0.985 | 0.884 | 0.544 | 0.676 | 0.716 | 0.761 | 0.661 | 0.623 | 0.262 | 0.226 | 0.25
16 | NCI-H522 | 0.886 | 0.978 | 0.922 | 0.96 | 0.925 | 1.04 | 0.784 | 0.635 | 0.968 | 0.973 | 0.874 | 0.86 | 1.07 | 0.737 | 0.658 | 0.608
17 | NCI-H596 | 1.12 | 1.11 | 1.06 | 0.992 | 0.945 | 1.02 | 1.1 | 0.981 | 0.521 | 0.455 | 0.548 | 0.494 | 0.441 | 0.931 | 0.773 | 0.509
18 | NCI-H647 | 0.934 | 1.03 | 1.07 | 0.943 | 0.897 | 1.01 | 1.03 | 0.99 | 0.172 | 0.182 | 0.205 | 0.203 | 0.202 | 0.575 | 0.568 | 0.601
19 | NCI-H727 | 0.858 | 1.16 | 1.02 | 0.922 | 1.09 | 1.09 | 1.13 | 1.02 |  |  |  |  |  | 0.716 | 0.583 | 0.67
20 | NCI-H1299 | 0.993 | 0.982 | 1.02 | 0.992 | 1 | 0.977 | 1.06 | 1.1 |  |  |  |  |  |  |  | 
21 | NCI-H1623 | 1.05 | 1.02 | 0.943 | 0.923 | 1.01 | 0.98 | 1.01 | 0.951 |  |  |  |  |  | 0.399 | 0.375 | 0.404
22 | NCI-H1703 | 1.01 | 0.816 | 0.972 | 0.889 | 0.812 | 0.959 | 0.973 | 1.23 |  |  |  |  |  |  |  | 
